tested on: L6; experiment: Antidiabetic activity in rat L6 cells assessed as stimulation of glucose uptake at 10 uM; type: functional

Row | SMILES | Activity
1 | C=C1CC[C@@H]2[C@](C)(CCC[C@]2(C)C(=O)N2CCN(c3ccc(F)cc3)CC2)[C@H]1CC[C@H](C)CCOC(C)=O | 22.45%
2 | C=C1CC[C@@H]2[C@](C)(CCC[C@]2(C)C(=O)N2CCN(c3cccc(OC)c3)CC2)[C@H]1CC[C@H](C)CCOC(C)=O | 54.73%
3 | C=C1CC[C@@H]2[C@](C)(CCC[C@]2(C)C(=O)N2CCN(C/C=C/c3ccccc3)CC2)[C@H]1CC[C@H](C)CCOC(C)=O | 16.3%
4 | C=C1CC[C@@H]2[C@](C)(CCC[C@]2(C)C(=O)N2CCN(c3ccc(C)cc3)CC2)[C@H]1CC[C@H](C)CCOC(C)=O | 2.21%
5 | C=C1CC[C@@H]2[C@](C)(CCC[C@]2(C)C(=O)N2CCN(c3ccc(Cl)cc3)CC2)[C@H]1CC[C@H](C)CCOC(C)=O | 40.79%
6 | C=C1CC[C@@H]2[C@](C)(CCC[C@]2(C)C(=O)N2CCN(c3ccccc3)CC2)[C@H]1CC[C@H](C)CCOC(C)=O | 24.14%
7 | C=C1CC[C@@H]2[C@](C)(CCC[C@]2(C)C(=O)N2CCN(C)CC2)[C@H]1CC[C@H](C)CCOC(C)=O | -10.16%
8 | C=C1CC[C@@H]2[C@](C)(CCC[C@]2(C)C(=O)N2CCN(C(C)=O)CC2)[C@H]1CC[C@H](C)CCOC(C)=O | -1.96%
9 | C=C1CC[C@@H]2[C@](C)(CCC[C@]2(C)C(=O)OC)[C@H]1CC[C@H](C)CCOC(=O)CN1CCN(c2ccc(F)cc2)CC1 | 28.86%
10 | C=C1CC[C@@H]2[C@](C)(CCC[C@]2(C)C(=O)OC)[C@H]1CC[C@H](C)CCOC(=O)CN1CCN(c2cccc(OC)c2)CC1 | 40.9%
11 | C=C1CC[C@@H]2[C@](C)(CCC[C@]2(C)C(=O)OC)[C@H]1CC[C@H](C)CCOC(=O)CN1CCN(C/C=C/c2ccccc2)CC1 | 18.58%
12 | C=C1CC[C@@H]2[C@](C)(CCC[C@]2(C)C(=O)OC)[C@H]1CC[C@H](C)CCOC(=O)CN1CCN(c2ccc(C)cc2)CC1 | 15.27%
13 | C=C1CC[C@@H]2[C@](C)(CCC[C@]2(C)C(=O)OC)[C@H]1CC[C@H](C)CCOC(=O)CN1CCN(c2ccc(Cl)cc2)CC1 | 39.55%
14 | C=C1CC[C@@H]2[C@](C)(CCC[C@]2(C)C(=O)OC)[C@H]1CC[C@H](C)CCOC(=O)CN1CCN(c2ccccc2)CC1 | 29.51%
15 | C=C1CC[C@@H]2[C@](C)(CCC[C@]2(C)C(=O)OC)[C@H]1CC[C@H](C)CCOC(=O)CN1CCN(C)CC1 | -3.75%
16 | C=C1CC[C@@H]2[C@](C)(CCC[C@]2(C)C(=O)OC)[C@H]1CC[C@H](C)CCOC(=O)CN1CCN(C(C)=O)CC1 | -5.9%
17 | C=C1CC[C@@H]2[C@](C)(CCC[C@]2(C)C(=O)O)[C@H]1CC[C@H](C)CCO [IMBRICATOLIC ACID] | 34.41%
18 | CN(CCOc1ccc(CC2SC(=O)NC2=O)cc1)c1ccccn1 (stereo not drawn) [ROSIGLITAZONE] | 54.5%
